Measured values published in a melting point compilation (Tetko et al.; mined from patent text by program, amines drawn as free bases though some values may be those of a salt).

melting point [°C]	SMILES
79.5 to 81	CN(C)CCCOc1ccc(C(=O)NN)cc1
127 to 128	CC1COCC(C)N1c1cccc([N+](=O)[O-])c1 (centres undefined)
273 to 280	CCCn1c(=O)n2c(-c3ccccc3)nnc2c2[nH]cnc21
209 to 210	CC(C)=C[C@@H](OC(=O)C=C(C)N[C@@H](C)c1cccc2ccccc12)C(Cl)(Cl)Cl
81 to 83.5	O=C(Cl)C=Cc1cccc([N+](=O)[O-])c1
55.5	CCOC(=O)c1nc(C)cc(C#N)c1C
69 to 70	c1ccc(-c2cnccn2)cc1
67 to 72	CCCCCC(=O)OCn1cnc2c1c(=O)n(C)c(=O)n2C
264 to 265	Cc1ccc2c(O)c(C(=O)O)cnc2c1
> 300	N#Cc1cccc(-c2ccc3cc[nH]c(=O)c3c2)c1
217 to 222	CC(C)(C)Nc1nc(NC(C)(C)C)nc(N2CC3CCC(CC3)C2)n1
169 to 171	Cn1cc(-c2ccc(Cl)c(Cl)c2)c(=O)c(-c2ccccc2Cl)c1
81 to 86	Cc1ccc(S(=O)(=O)OC2=CC3COC(O3)C2=O)cc1 (centres undefined)
196	O=C(NC(=O)c1c(F)cccc1F)Nc1cc(C(F)(F)F)c(Cl)cc1Br
77 to 77.5	Cc1cc(CCCOc2c(C)cc(-c3noc(C(Cl)(Cl)Cl)n3)cc2C)on1
145 to 147	COc1cc(OC)nc(NC(=O)NS(=O)(=O)c2ncccc2CSC)n1
107 to 108	C[C@@H]1CCN(C(=O)C(C)(C)C)[C@@H](C(=O)NOCc2ccccc2)C1
65 to 75	FC(F)Oc1ccc(C2=NNCC2c2ccccc2)cc1 (centres undefined)
158	COc1ccc2c(=O)c3cccc(OCc4ccccc4)c3oc2c1
100 to 101	CS(=O)(=O)c1ccc(-c2cnn(-c3ccc(F)c(F)c3)c(=O)c2OCCC2CCCC2)cc1
166 to 167	CCOC(=O)CNC1=NS(=O)(=O)c2ccccc21
120 to 123	C[N+]([O-])=C(Cn1ccnc1)c1ccco1
222 to 223	Cc1noc(C)c1-c1cncc(OC2SCC(O)C(O)C2O)c1 (centres undefined)
99.6 to 100	CCOC(=O)c1cc(-c2ccccc2)n(-c2cccc(Cl)c2)c1C
192 to 194	CN1CCN(Cc2ccccc2)CC(NC(=O)c2n[nH]c3ccccc23)C1 (centres undefined)

melting point [°C]	SMILES
182 to 184	CCOC(=O)C1=C(C)NC(C)=C(C(=O)OCC)C1c1ccccc1/C=C/C(=O)OC1CCCC1
198 to 200	O=c1c2c(OCC3CO3)cc(OCC3CO3)cc2oc2ccc3ccccc3c12 (centres undefined)
152 to 153	CC1(C)CC(NC(=O)Nc2ccc(C(F)(F)F)cc2)CC(C)(C)C1=O
149 to 152	COC(CN(C)C(=O)Nc1nnc(C(C)Oc2cc(Cl)cc(Cl)c2)s1)OC (centres undefined)
95	Cc1cc(CC(=O)O)ccc1[N+](=O)[O-]
114 to 115	O=C(CCCCBr)NC(=O)C1CC1
140 to 141	C=CCOC(=O)c1cccc(NC(=O)NCC(=O)Nc2ccccc2C(=O)c2cccs2)c1
109 to 111	COc1ccc(-c2nn(CC=Cc3ccc(Cl)cc3)c(=O)cc2-c2ccc(OC)c(F)c2)cc1
201 to 203	Cc1nc(N2CCN(Cc3ccc(F)cc3)C2=O)sc1C(N)=O
> 290	O=CNNc1ccc(NC(=O)c2cccc(N=C=S)c2)cc1
115 to 116	CSc1cc(C)nc(SC)c1NC(=O)CCCCCCCSc1nc2cccc(C(F)(F)F)c2o1
180 to 183	CCCCOC(=O)NC(=O)C1c2ccccc2Oc2ccccc21
105	COC(=O)C=CC=CCS(=O)(=O)c1ccccc1
109 to 110	O=C(Cl)c1c(-c2ccccc2)nn2c1-c1ccccc1CC2
96 to 99	COCc1nc2cnc3ccccc3c2n1CC(C)C
165	CCc1nnc(C=Cc2ncc([N+](=O)[O-])n2C)s1
135	N#CCCNNC(=S)c1ccc(OCc2ccccc2)cc1
135 to 136	CCOC(=O)c1c(OC)nc2c(C)cc(C)cc2c1-c1ccccc1Cl
> 250	O=C1CCCC2=C1C(c1cc(Br)cs1)C1=C(CCS1)N2 (centres undefined)
62.6 to 63.5	O=C(O)CCCCCCCCCC#CC#Cc1ccco1
133 to 135	COc1cc(C(C)=O)ccc1OCCCCN1CCC(c2n[nH]c3ccccc23)CC1
81 to 84	COc1cc(C(C)C)ccc1C1(Cl)C(=O)c2cccc([N+](=O)[O-])c2C1=O (centres undefined)
40 to 45	CCN(CC)CCNC(=O)c1cnc(-c2ccccc2)nc1Cl
95 to 96	O=c1cnc(-c2cccc(Cc3ccccc3)c2)nn1CC(F)(F)F
78 to 84	Oc1ccc2c(c1)OCC(c1ccc(F)cc1)C2c1ccc(OCCCN2CCCCC2)cc1 (centres undefined)

melting point [°C]	SMILES
207 to 211	Cc1cc(C2=NN(C3=NNC(=O)CS3)[C@H](C)Cc3cc4c(cc32)OCO4)ccc1[N+](=O)[O-]
310 to 312	CCCCCc1nc2ccc(C(=O)O)cc2c(=O)[nH]1
197 to 198	COc1cccc(-c2nc(NO)nc(Nc3cccc([N+](=O)[O-])c3)n2)c1
235 to 237	CC(O)C1CCC2C3CC=C4CC(O)CC(O)C4(C)C3CCC12C (centres undefined)
199 to 200	CCc1cc2c(ccc(=O)n2Cc2ccc(-c3ccccc3S(N)(=O)=O)cc2)c(CC)n1
112	COc1ccc(Cl)c(N)c1C(=O)CCl
> 300	COC[C@H]1CCCN1NC(=O)Nc1cccc2c1C(=O)c1c-2n[nH]c1-c1ccc(C(=O)N2CCN(C(=O)OC(C)(C)C)CC2)s1
133 to 135	COC(=O)c1ccc2c(-c3ccccc3)cc(=O)oc2c1
113 to 114	O=C(O)CCCc1nc2c(F)c(F)cc(F)c2s1
66 to 68	CC(C)OC(=O)c1cc(-n2c(=O)c(F)c(C(F)(F)F)n(C)c2=O)c(F)cc1Cl
96 to 102	O=c1oc(-c2cccc(S(=O)(=O)C(F)(F)F)c2)nc2ccccc12
195 to 197	COc1ccc(CN2C(=O)C(c3cc4c(C)noc4cc3O)c3ccccc32)cc1 (centres undefined)
97 to 99	C[Si](O)(Cn1cncn1)c1ccc(-c2ccccc2)cc1 (centres undefined)
94 to 95	COc1ccc(-c2cc(C=O)c3occc3c2)cc1
103 to 104	CCc1cc2nccc(-c3cccnc3)n2n1
104 to 105	CCCCCCC(=O)c1ccc(OCC(=O)O)c(Cl)c1Cl
69 to 70	Cc1cc(SCc2ccccc2)ccn1
218 to 220	Cc1oc(-c2ccccc2)nc1CCOc1ccc(C[C@@H](C(=O)O)N2CCN(c3ccccc3)CC2)cc1
86	CNC(=S)C1(c2ccccc2)CCCCC1=O (centres undefined)
300 to 305	Cc1ccc(Cl)c(Nc2ccccc2-c2n[nH]c(=S)[nH]2)c1Cl
147 to 148	CC1(C)SC(c2ccc([N+](=O)[O-])o2)NC1C(=O)O (centres undefined)
201	NC(=O)c1ccc(-c2nc(O)c3c(n2)CCC3)cc1
123 to 125	O=c1oc(-c2ccc(OCCO)cc2)cc(O)c1SCCc1ccccc1
61 to 63	COc1csc(C)c1N
180	CN(C(=O)CN(C(=O)CNC(=O)Nc1cccc(O)c1)c1ccccc1)c1ccccc1

melting point [°C]	SMILES
183 to 185	CC(C)(C)CC(C)(C)c1ccc(Oc2cc3nc(-c4ccccc4)oc3cc2[N+](=O)[O-])cc1
105 to 107	CCCCCCCCc1ccc(CCC(NC(C)=O)(C(O)OC(C)=O)C(O)OC(C)=O)cc1 (centres undefined)
107 to 111	CCOC(=O)C(=CNc1nncs1)C(=O)OCC
112 to 114	CCCCCCCCCCCCNC(=O)Oc1ccc2oc3ccccc3c2c1
245 to 246	C[C@H](NC(=O)OCc1ccccc1)C(=O)Nc1ccc(S(N)(=O)=O)cc1
164	Oc1c(Br)cc(Cl)cc1Cc1cc(F)cc(Cc2cc(Cl)cc(Br)c2O)c1O
33 to 35	O=[N+]([O-])c1ccccc1Oc1ccc(Cl)cc1
69 to 70	Cc1ccc(C(O[Si](C)(C)C(C)(C)C)C(=O)NCCO)cc1 (centres undefined)
88 to 90	FC(F)(F)c1cccc(CSc2nnc(-c3ccc4c(c3)CCO4)o2)c1
80 to 80.5	O=C(O)c1ccc(CCCCCc2ccccc2)cc1
268 to 270	CCCC(=O)c1c[nH]c(=O)[nH]1
178 to 180	COc1cc2c(cc1C(F)(F)F)N(C(=O)Nc1cccc(-c3cnccc3C)c1)CC2
71	O=C(O)CCCc1cccc(C(=O)c2ccccc2)c1
75	COc1ccc2c(-c3ccc(OCCN4CCCC4)cc3)c(Cc3ccc(Cl)cc3)oc2c1
246 to 248	Cn1c(CCCCl)nc2ccc3ccccc3c21
188 to 191	CCn1nc(NC(=O)NS(=O)(=O)c2ccccc2C(=O)OC)nc1SC
228 to 230	Cc1[nH]c(=O)c(C#N)cc1-c1ccccc1OCC(C)C(=O)O (centres undefined)
142 to 144	Nc1ccccc1-c1nc2cccnc2o1
210	CS(=O)(=O)N(c1cccc(C(=O)NCc2nc[nH]n2)c1)C1CN(C(c2ccc(Cl)cc2)c2ccc(Cl)cc2)C1
48 to 50	CCCCCCCCCCOc1cc(O)cc(OCCCCCCCCCC)c1
124 to 126	COC(=O)/C=C/C(=O)OCC(=O)N1CCOCC1
197	CC(C)CC(=O)N[C@H]1CC[C@H](CCN2CCC(c3cccc4c3CCO4)CC2)CC1
136 to 138	CCOc1csc(C)c1C1OC(=O)NC1=O (centres undefined)
53 to 54	COC(C)(C)C(=O)C(Oc1ccc(Cl)cc1Cl)n1cncn1 (centres undefined)
182 to 183	Nc1ccccc1NC(=O)c1cc2cccc(OCCO)c2o1

SMILES	melting point [°C]
CCCCCn1c2ccccc2c2cc(C(=O)N3CCOCC3)ccc21	99 to 101
CC(=O)OCc1nnc2n1-c1sc(Cl)cc1C(c1ccccc1Cl)=NC2	191 to 193
O=C(O)c1cccc(CCl)c1	134 to 136
CCN1CC=C(c2c[nH]c3ccc([N+](=O)[O-])cc23)CC1	188 to 190
